Values of other authors, collected in US20260115111A1, “METHOD FOR IMPROVING THE TACTILE SENSATION OF DYED KERATINOUS MATERIAL, ESPECIALLY HUMAN HAIR” (Henkel AG & Co. KGaA, priority 2019, published 2026).

Settings: 25° C.

Compound | solubility in water
O=S(=O)([O-])c1ccc(N=Nc2c(O)ccc3ccccc23)cc1.[Na+] [Acid Orange 7, sodium salt of 4-[(2-hydroxy-1-naphthyl)azo]benzene sulphonate] | more than 7 g/L
O=C([O-])c1c(Cl)c(Cl)c(Cl)c(Cl)c1-c1c2c(Br)cc(=O)c(Br)c-2oc2c(Br)c(O)cc(Br)c12.O=C([O-])c1c(Cl)c(Cl)c(Cl)c(Cl)c1-c1c2c(Br)cc(=O)c(Br)c-2oc2c(Br)c(O)cc(Br)c12.[Na+].[Na+] [Acid Red 92, disodium salt of 3,4,5,6-tetrachloro-2-(1,4,5,8-tetrabromo-6-hydroxy-3-oxoxanthen-9-yl)benzoic acid] | greater than 10 g/L

Results, then the compound that gave them:

solubility in water | Compound
more than 20 wt. % | CCN(Cc1cccc(S(=O)(=O)[O-])c1)c1ccc(C(=C2C=CC(=[N+](CC)Cc3cccc(S(=O)(=O)[O-])c3)C=C2)c2ccccc2S(=O)(=O)[O-])cc1.[Na+].[Na+] [Acid Blue 9]
2500 µg/mL | Nc1cc(S(=O)(=O)[O-])cc2cc(S(=O)(=O)[O-])c(N=Nc3ccccc3)c(O)c12.[Na+].[Na+] [Acid Red 33, diantrium salt of 5-amino-4-hydroxy-3-(phenylazo)-naphthalene-2,7-disulphonate]
highly soluble | O=C([O-])C1=NN(c2ccc(S(=O)(=O)[O-])cc2)C(=O)C1N=Nc1ccc(S(=O)(=O)[O-])cc1.[Na+].[Na+].[Na+] (centres unmarked) [Acid Yellow 23, trisodium salt of 4,5-dihydro-5-oxo-1-(4-sulfophenyl)-4-((4-sulfophenyl)azo)-1H-pyrazole-3-carboxylic acid]
